Consider eleven compounds from ChEMBL document CHEMBL1150872, “Four new bioactive lobane diterpenes of the soft coral Lobophytum pauciflorum from Mindoro, Philippines” (J Nat Prod, 1998).

Data set [1] is described as follows: Toxicity in Artemia salina after 48 hrs. In kind it is organism-based. To be noted: in vivo.
Data set [2] has as its system Cladosporium cucumerinum. Put plainly: Antifungal activity against Cladosporium cucumerinum at 0.4 umol after 2 days. In kind it is functional.
Data set [3] concerns Cladosporium cucumerinum. The experiment in a line: Antifungal activity against Cladosporium cucumerinum at 0.2 umol after 2 days. In kind it is functional.
Data set [4] has as its system Cladosporium cucumerinum. The experiment in a line: Antifungal activity against Cladosporium cucumerinum at 0.8 umol after 2 days. In kind it is functional.
The subject of data set [5] is Cladosporium cucumerinum. The experiment in a line: Antifungal activity against Cladosporium cucumerinum at 0.1 umol after 2 days. The data set is classed as functional.
A further data set deals with Saccharomyces cerevisiae. Put plainly: Antifungal activity against Saccharomyces cerevisiae after 2 days. The data set is classed as functional.
A further data set deals with Bacillus subtilis. The experiment in a line: Antibacterial activity against Bacillus subtilis 168 after 24 hrs by agar diffusion assay. In kind it is functional, subsp. subtilis str. 168. On the technique in general: A growth-free zone around the sample is the usual read-out of agar diffusion tests.
In another data set the test system is Staphylococcus aureus. The experiment in a line: Antibacterial activity against Staphylococcus aureus […] after 24 hrs by agar diffusion assay. In kind it is functional, organism-based.
A further data set deals with Escherichia coli. Put plainly: Antibacterial activity against Escherichia coli ATCC 25922 after 24 hrs by agar diffusion assay. In kind it is functional, organism-based.

Values after ≈ are worked out from the molar mass of the structure shown. Active and inactive are the calls of the source. The rule behind the calls is not given here.

`C=C[C@@]1(C)CC[C@H](/C(=C/C[C@@H](O)C(C)(C)O)COC(C)=O)C[C@@H]1C(=C)C` displayed an LC50 at 48 h in data set [1] of 59 µg/mL (≈ 162 µM). Besides, the “inhibition zone (IZ)” value in the data set on Cladosporium cucumerinum [2] stood at 20 mm; in the data set on Cladosporium cucumerinum [3], 10 mm; in the data set on Cladosporium cucumerinum [4], 30 mm; in the data set with Cladosporium cucumerinum [5] it was 5 mm.
`C=C[C@@]1(C)CC[C@H](C2=CC[C@H](C(C)(C)OC(C)=O)OC2)C[C@@H]1C(=C)C` registered an LC50 at 48 h in data set [1] of 34 µg/mL (≈ 98 µM). Also, the “inhibition zone (IZ)” value in the data set on Cladosporium cucumerinum [2] is reported as 10 mm; in the data set on Cladosporium cucumerinum [3], 8 mm; with Cladosporium cucumerinum [5], 6 mm.
Take `C=C[C@@]1(C)CC[C@H](/C(C)=C/C=C/C(C)(C)O)C[C@@H]1C(=C)C` [FUSCOL]: the LC50 at 48 h in [1] was 4.18 µg/mL (≈ 14.5 µM). In addition, the “inhibition zone (IZ)” value was determined as 0 mm in the data set on Cladosporium cucumerinum [2], 0 mm with Cladosporium cucumerinum [3], 2 mm in the data set with Cladosporium cucumerinum [4] and 0 mm in the data set on Cladosporium cucumerinum [5].
Consider `C=C[C@@]1(C)CC[C@H](/C(=C/C[C@@H](OC(C)=O)C(C)(C)O)COC(C)=O)C[C@@H]1C(=C)C`, for which the LC50 at 48 h in [1] came to 60.4 µg/mL (≈ 149 µM). Besides, the “inhibition zone (IZ)” value with Cladosporium cucumerinum [2] is 13 mm; in the data set on Cladosporium cucumerinum [3] it was 10 mm; in the data set with Cladosporium cucumerinum [4], 15 mm; with Cladosporium cucumerinum [5], 5 mm.
In data set [1], `C=C[C@@]1(C)CC[C@H](/C(C)=C/C[C@@H](O)C(C)(C)O)C[C@@H]1C(=C)C` registered an LC50 at 48 h of 10.5 µg/mL (≈ 34.3 µM). The “inhibition zone (IZ)” value stood at 14 mm with Cladosporium cucumerinum [2], 9 mm with Cladosporium cucumerinum [3], 17 mm with Cladosporium cucumerinum [4] and 6 mm with Cladosporium cucumerinum [5].
Regarding `C=C[C@@]1(C)CC[C@H](C2=CC[C@H](C(C)(C)O)OC2=O)C[C@@H]1C(=C)C` [LOBATRIENOLIDE], the “inhibition zone (IZ)” value in the data set with Cladosporium cucumerinum [2] amounted to 13 mm; with Cladosporium cucumerinum [3] it was 9 mm; with Cladosporium cucumerinum [4] it was 15 mm; with Cladosporium cucumerinum [5], 6 mm.
Consider `COC1=C(C)C(=O)c2cc(=O)n(C)c(C)c2C1=O` [MIMOSAMYCIN], for which the “inhibition zone (IZ)” value in the data set with Cladosporium cucumerinum [2] came out at 18 mm; in the data set with Cladosporium cucumerinum [3], 15 mm.
Regarding `C=C[C@@]1(C)CC[C@H](C2=CC[C@H](C(C)(C)O)OC2)C[C@@H]1C(=C)C` [LOBATRIENE], the LC50 at 48 h in data set [1] was determined as 19.8 µg/mL (≈ 65 µM). For the same compound, the “inhibition zone (IZ)” value in the data set with Saccharomyces cerevisiae is 7 mm; in the data set on Cladosporium cucumerinum [2], 14 mm; in the data set on Bacillus subtilis, 8 mm; with Cladosporium cucumerinum [3] it was 10 mm; in the data set with Cladosporium cucumerinum [4] it was 15 mm; with Cladosporium cucumerinum [5] it was 5 mm. Also, the result in the data set with Staphylococcus aureus and with Escherichia coli was inactive.
For the compound `C=C[C@@]1(C)CC[C@H](C2=CCC(O)C(C)(C)OC2)C[C@@H]1C(=C)C` (stereo partly drawn), the “inhibition zone (IZ)” value with Cladosporium cucumerinum [2] was 14 mm; with Cladosporium cucumerinum [3], 10 mm; in the data set on Cladosporium cucumerinum [4], 17 mm; in the data set with Cladosporium cucumerinum [5] it was 5 mm.
In [1], `C=C[C@@]1(C)CC[C@H](/C(C)=C/C[C@H]2OC2(C)C)C[C@@H]1C(=C)C` came in with an LC50 at 48 h of 0.64 µg/mL (≈ 2.22 µM). Further, the “inhibition zone (IZ)” value was found to be 0 mm with Cladosporium cucumerinum [2], 0 mm in the data set with Cladosporium cucumerinum [3], 5 mm with Cladosporium cucumerinum [4] and 0 mm in the data set on Cladosporium cucumerinum [5].
For `C=C[C@@]1(C)CC[C@H](/C(C)=C/C[C@@H](OC(C)=O)C(C)(C)O)C[C@@H]1C(=C)C`, the LC50 at 48 h in data set [1] stood at 19.1 µg/mL (≈ 54.8 µM). Besides, the “inhibition zone (IZ)” value was determined as 9 mm with Cladosporium cucumerinum [2], 5 mm in the data set with Cladosporium cucumerinum [3], 13 mm in the data set on Cladosporium cucumerinum [4] and 2 mm in the data set with Cladosporium cucumerinum [5].

What is called LC50 is the concentration that kills 50% of the test population. Read a low LC50 as a more lethal substance.
